# Data: ChEMBL document CHEMBL1129930, “Analogues of methotrexate in rheumatoid arthritis. 2. Effects of 5-deazaaminopterin, 5,10-dideazaaminopterin, and analogues on type II collagen-induced arthritis in mice” (J Med Chem, 1997)
# Tests used:
# Mus musculus [1] = test: Tested for antiinflammatory activity on mouse type II collagen arthritis as Paw swelling of all animals in each group on day 44 at intraperitoneal dose of 9 mg/kg; type: functional
# Mus musculus [2] = test: Incidence of disease (mouse type II collagen) was scored as the percentage of animals within each experimental group that exhibited joint or limb inflammation on day 23 at intraperitoneal dose of 4.5 mg/kg; type: functional
# Mus musculus [3] = test: Tested for antiinflammatory activity on mouse type II collagen arthritis as Paw swelling of all animals in each group on day 37 at intraperitoneal dose of 9 mg/kg; type: functional
# Mus musculus [4] = test: Tested for antiinflammatory activity on mouse type II collagen arthritis as Paw swelling of all animals in each group on day 23 at intraperitoneal dose of 9 mg/kg; type: functional
# Mus musculus [5] = test: Tested for antiinflammatory activity on mouse type II collagen arthritis as Paw swelling of all animals in each group on day 44 at intraperitoneal dose of 4.5 mg/kg; type: functional
# Mus musculus [6] = test: Incidence of disease (mouse type II collagen) was scored as the percentage of animals within each experimental group that exhibited joint or limb inflammation on day 23 at intraperitoneal dose of 9 mg/kg; type: functional
# Mus musculus [7] = test: Tested for antiinflammatory activity on mouse type II collagen arthritis as Paw swelling of all animals in each group on day 30 at intraperitoneal dose of 9 mg/kg; type: functional
# Mus musculus [8] = test: Incidence of disease (mouse type II collagen) was scored as the percentage of animals within each experimental group that exhibited joint or limb inflammation on day 37 at intraperitoneal dose of 9 mg/kg; type: functional
# Mus musculus [9] = test: Incidence of disease (mouse type II collagen) was scored as the percentage of animals within each experimental group that exhibited joint or limb inflammation on day 30 at intraperitoneal dose of 9 mg/kg; type: functional
# Mus musculus [10] = test: Tested for antiinflammatory activity on mouse type II collagen arthritis as Paw swelling of all animals in each group on day 37 at intraperitoneal dose of 4.5 mg/kg; type: functional
# Mus musculus [11] = test: Incidence of disease (mouse type II collagen) was scored as the percentage of animals within each experimental group that exhibited joint or limb inflammation on day 37 at intraperitoneal dose of 4.5 mg/kg; type: functional
# Mus musculus [12] = test: Tested for antiinflammatory activity on mouse type II collagen arthritis as Paw swelling of all animals in each group on day 30 at intraperitoneal dose of 4.5 mg/kg; type: functional
# Mus musculus [13] = test: Incidence of disease (mouse type II collagen) was scored as the percentage of animals within each experimental group that exhibited joint or limb inflammation on day 44 at intraperitoneal dose of 9 mg/kg; type: functional
# Mus musculus [14] = test: Tested for antiinflammatory activity on mouse type II collagen arthritis as Paw swelling of all animals in each group on day 23 at intraperitoneal dose of 4.5 mg/kg; type: functional
# Mus musculus [15] = test: Incidence of disease (mouse type II collagen) was scored as the percentage of animals within each experimental group that exhibited joint or limb inflammation on day 44 at intraperitoneal dose of 4.5 mg/kg; type: functional
# Mus musculus [16] = test: Incidence of disease (mouse type II collagen) was scored as the percentage of animals within each experimental group that exhibited joint or limb inflammation on day 30 at intraperitoneal dose of 4.5 mg/kg; type: functional
# Mus musculus [17] = test: Tested for antiinflammatory activity on mouse type II collagen arthritis as Paw swelling* of all animals in each group on day 30 at intraperitoneal dose of 6 mg/kg; type: functional
# Mus musculus [18] = test: Incidence of disease (mouse type II collagen) was scored as the percentage of animals within each experimental group that exhibited joint or limb inflammation on day 23 at intraperitoneal dose 12 mg/kg; type: functional
# Mus musculus [19] = test: Incidence of disease (mouse type II collagen) was scored as the percentage of animals within each experimental group that exhibited joint or limb inflammation on day 37 at intraperitoneal of dose 6 mg/kg; type: functional
# Mus musculus [20] = test: Tested for antiinflammatory activity on mouse type II collagen arthritis as Paw swelling* of all animals in each group on day 23 at intraperitoneal dose of 18 mg/kg; type: functional
# Mus musculus [21] = test: Tested for antiinflammatory activity on mouse type II collagen arthritis as Paw swelling* of all animals in each group on day 30 at intraperitoneal dose of 12 mg/kg; type: functional
# [22] = Concentration required to inhibit the growth of chang liver cells.; type: functional; conditions: Homo sapiens
# Mus musculus [23] = test: Tested for antiinflammatory activity on mouse type II collagen arthritis as Paw swelling* of all animals in each group on day 44 at intraperitoneal dose of 6 mg/kg; type: functional
# Mus musculus [24] = test: Incidence of disease (mouse type II collagen) was scored as the percentage of animals within each experimental group that exhibited joint or limb inflammation on day 44 at intraperitoneal of dose 18 mg/kg; type: functional
# Mus musculus [25] = test: Tested for antiinflammatory activity on mouse type II collagen arthritis as Paw swelling* of all animals in each group on day 44 at intraperitoneal dose of 12 mg/kg; type: functional
# L1210 = test: Concentration required to inhibit the growth of L1210 cells.; type: functional, cell-based; conditions: Mus musculus
# Mus musculus [26] = test: Incidence of disease (mouse type II collagen) was scored as the percentage of animals within each experimental group that exhibited joint or limb inflammation on day 30 at intraperitoneal of dose 6 mg/kg; type: functional
# Mus musculus [27] = test: Incidence of disease (mouse type II collagen) was scored as the percentage of animals within each experimental group that exhibited joint or limb inflammation on day 37 at intraperitoneal of dose 12 mg/kg; type: functional
# Mus musculus [28] = test: Incidence of disease (mouse type II collagen) was scored as the percentage of animals within each experimental group that exhibited joint or limb inflammation on day 30 at intraperitoneal of dose 12 mg/kg; type: functional
# Mus musculus [29] = test: Tested for antiinflammatory activity on mouse type II collagen arthritis as Paw swelling* of all animals in each group on day 37 at intraperitoneal dose of 12 mg/kg; type: functional
# Mus musculus [30] = test: Incidence of disease (mouse type II collagen) was scored as the percentage of animals within each experimental group that exhibited joint or limb inflammation on day 23 at intraperitoneal dose 6 mg/kg; type: functional
# Mus musculus [31] = test: Incidence of disease (mouse type II collagen) was scored as the percentage of animals within each experimental group that exhibited joint or limb inflammation on day 44 at intraperitoneal of dose 6 mg/kg; type: functional
# Mus musculus [32] = test: Incidence of disease (mouse type II collagen) was scored as the percentage of animals within each experimental group that exhibited joint or limb inflammation on day 30 at intraperitoneal of dose 18 mg/kg; type: functional
# Mus musculus [33] = test: Tested for antiinflammatory activity on mouse type II collagen arthritis as Paw swelling* of all animals in each group on day 30 at intraperitoneal dose of 18 mg/kg; type: functional
# Mus musculus [34] = test: Tested for antiinflammatory activity on mouse type II collagen arthritis as Paw swelling* of all animals in each group on day 37 at intraperitoneal dose of 6 mg/kg; type: functional
# Mus musculus [35] = test: Tested for antiinflammatory activity on mouse type II collagen arthritis as Paw swelling* of all animals in each group on day 23 at intraperitoneal dose of 12 mg/kg; type: functional
# Mus musculus [36] = test: Incidence of disease (mouse type II collagen) was scored as the percentage of animals within each experimental group that exhibited joint or limb inflammation on day 23 at intraperitoneal dose 18 mg/kg; type: functional
# Mus musculus [37] = test: Tested for antiinflammatory activity on mouse type II collagen arthritis as Paw swelling* of all animals in each group on day 23 at intraperitoneal dose of 6 mg/kg; type: functional
# Mus musculus [38] = test: Tested for antiinflammatory activity on mouse type II collagen arthritis as Paw swelling* of all animals in each group on day 44 at intraperitoneal dose of 18 mg/kg; type: functional
# Mus musculus [39] = test: Tested for antiinflammatory activity on mouse type II collagen arthritis as Paw swelling* of all animals in each group on day 37 at intraperitoneal dose of 18 mg/kg; type: functional
# Mus musculus [40] = test: Incidence of disease (mouse type II collagen) was scored as the percentage of animals within each experimental group that exhibited joint or limb inflammation on day 44 at intraperitoneal of dose 12 mg/kg; type: functional
# Mus musculus [41] = test: Incidence of disease (mouse type II collagen) was scored as the percentage of animals within each experimental group that exhibited joint or limb inflammation on day 37 at intraperitoneal of dose 18 mg/kg; type: functional
smiles,measurement,setting,value
CCC(Cc1cnc2nc(N)nc(N)c2c1C)c1ccc(C(=O)NC(CCC(=O)O)C(=O)O)cc1 (configuration not stated),Paw swelling,Mus musculus [1],2.99 mm
same,Animals,Mus musculus [2],0%
same,Paw swelling,Mus musculus [3],3.09 mm
same,Paw swelling,Mus musculus [4],2.12 mm
same,Paw swelling,Mus musculus [5],2.68 mm
same,Animals,Mus musculus [6],0%
same,Paw swelling,Mus musculus [7],2.45 mm
same,Animals,Mus musculus [8],88%
same,Animals,Mus musculus [9],50%
same,Paw swelling,Mus musculus [10],2.32 mm
same,Animals,Mus musculus [11],38%
same,Paw swelling,Mus musculus [12],2.18 mm
same,Animals,Mus musculus [13],88%
same,Paw swelling,Mus musculus [14],2.1 mm
same,Animals,Mus musculus [15],75%
same,Animals,Mus musculus [16],12%
C#CCN(Cc1cnc2nc(N)nc(N)c2c1)c1ccc(C(=O)NC(CCC(=O)O)C(=O)O)cc1 (configuration not stated),Paw swelling,Mus musculus [17],2.32 mm
same,Animals,Mus musculus [18],0%
same,Animals,Mus musculus [19],88%
same,Paw swelling,Mus musculus [20],2.16 mm
same,Paw swelling,Mus musculus [21],2.16 mm
same,IC50,[22],6.3 nM
same,Paw swelling,Mus musculus [23],2.65 mm
same,Animals,Mus musculus [24],38%
same,Paw swelling,Mus musculus [25],2.49 mm
same,IC50,L1210,13 nM
same,Animals,Mus musculus [26],38%
same,Animals,Mus musculus [27],50%
same,Animals,Mus musculus [28],0%
same,Paw swelling,Mus musculus [29],2.3 mm
same,Animals,Mus musculus [30],0%
same,Animals,Mus musculus [31],100%
same,Animals,Mus musculus [32],0%
same,Paw swelling,Mus musculus [33],2.13 mm
same,Paw swelling,Mus musculus [34],2.46 mm
same,Paw swelling,Mus musculus [35],2.17 mm
same,Animals,Mus musculus [36],0%
same,Paw swelling,Mus musculus [37],2.12 mm
same,Paw swelling,Mus musculus [38],2.27 mm
same,Paw swelling,Mus musculus [39],2.23 mm
same,Animals,Mus musculus [40],75%
same,Animals,Mus musculus [41],38%
